Values quoted from earlier work in patent US7238375B1, “Composition and method to promote human hair growth” (priority 2004, dated 2007).
pIC50: −log10 of the molar value.

Assays:
[1] = target: T1, Type 1 5-alpha-reductase (Homo sapiens, UniProt P18405); details: application of copper ion to skin
T1 sequence (P18405 1-259): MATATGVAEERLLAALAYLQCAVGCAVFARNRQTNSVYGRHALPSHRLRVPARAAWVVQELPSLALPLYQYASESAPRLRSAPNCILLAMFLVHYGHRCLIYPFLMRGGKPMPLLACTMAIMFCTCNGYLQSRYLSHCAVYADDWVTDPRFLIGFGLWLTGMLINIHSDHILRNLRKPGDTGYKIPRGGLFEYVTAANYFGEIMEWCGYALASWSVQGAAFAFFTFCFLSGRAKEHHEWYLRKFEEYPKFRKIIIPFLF

[2] = target: T2, Type 2 5-alpha-reductase (Homo sapiens, UniProt P31213); details: application of copper ion to skin
T2 sequence (P31213 1-254): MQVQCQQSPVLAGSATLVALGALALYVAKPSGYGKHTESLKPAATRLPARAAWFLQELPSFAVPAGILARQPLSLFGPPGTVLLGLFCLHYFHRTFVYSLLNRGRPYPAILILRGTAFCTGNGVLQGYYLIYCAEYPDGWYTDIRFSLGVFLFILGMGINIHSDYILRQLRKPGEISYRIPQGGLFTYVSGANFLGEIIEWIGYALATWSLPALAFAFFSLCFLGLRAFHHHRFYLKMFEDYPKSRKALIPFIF

[3] = test system: rats
[4] = test system: sheep; details: supplement in the diet of sheep

SMILES	concentration giving 50% reduction in activity of Type 1 5-alpha-reductase [1]	pIC50 ([1]; read-out: concentration giving 50% reduction in activity of Type 1 5-alpha-reductase)	concentration giving 50% reduction in activity of Type 2 5-alpha-reductase [2]	pIC50 ([2]; read-out: concentration giving 50% reduction in activity of Type 2 5-alpha-reductase)	effect on hair shafts [3]	effect on wool growth patterns [4]
[Cu+2] [Copper ion]	0.12 micrograms copper ion per milliliter	5.72	1.2 micrograms copper ion per milliliter	4.99		
N[C@@H](CS)C(=O)O [Cysteine]					thicker hair shafts	significant modification in wool growth patterns
